Data on one substance can be found in US20210379153A1, “COMBINATION THERAPIES COMPRISING SIRP ALPHA-BASED CHIMERIC PROTEINS” (Shattuck Labs, Inc., priority 2018, published 2021).

“Also recorded” adds a separate entry of the source.

For data set [1], the system named is parental CHOK1 cells. Nature of the data set: Flow cytometry binding to parental CHOK1 cells. From the text:
Scale is shown and yellow arrows correspond with each identified monomer. A schematic of the hexamer species is shown to the right, depicting dimerization of the Fc domain and trimerization of the CD40L domain. […] Recombinant hSIRPα-Fc, hCD40L-Fc, and hIgG1 were used as positive controls. […] In both panels, the CHOK1 Parental is on the left and the CHOK1/hCD47 is on the right. […] For both graphs, the CHOK1 Parental is on the bottom. […] In this figure, the control is the top curve, the SIRPα-Fc-CD40L is the middle curve, and the anti-CD47 is the bottom curve.
The extracellular domain (ECD) of SIRPα and the ECD of CD40L were fused via an antibody Fc domain to generate SIRPαECD-Fc-CD40LECD chimeric proteins. When human proteins were used, the chimeric protein is referred to as hSIRPα-Fc-CD40L; when murine proteins were used, the chimeric protein is referred to as and mSIRPα-Fc-CD40L. […] The purified protein was then analyzed for the presence of each individual domain by Western blotting using anti-SIRPα, anti-Fc, and anti-CD40L antibodies (FIG. 3A, bottom). […] Next, binding affinities for SIRPα-Fc-CD40L to recombinant CD47, CD40, or Fc receptors were evaluated by surface plasmon resonance (SPR). […] A functional ELISA evaluated whether SIRPα-Fc-CD40L could outcompete a commercially available single-sided SIRPα-Fc control for binding to recombinant CD47 (FIG. 3H).
In general terms: A flow cytometer gives signals particle by particle.

For data set [2], the system named is Raji cells. Put plainly: In vitro phagocytosis of Raji cells by human macrophages. It is filed as cell-based. From the text: To this end, in vitro tumor cell phagocytosis assays were established to determine whether SIRPα-Fc-CD40L enhanced macrophage-mediated phagocytosis of various tumor cell lines both alone and in combination with anti-CD20 antibodies.
Initially, a variety of CD20+ lymphoma (Toledo, Raji, and Ramos) cell lines were co-cultured with human monocyte-derived macrophages to assay the amount of phagocytosis promoted by the SIRPα(CD172a)-Fc-CD40L chimeric protein in the presence or absence of an anti-CD20 antibody.
Such synergistic effect was unexpected.
These experiments used an in vitro phagocytosis assay with human donor macrophages and several human tumor cell lines (e.g., Raji cells, a human Burkitt lymphoma tumor cell line), to test whether SIRPα-Fc-CD40L's blockade of the tumor cell antigen CD47 (“don't eat me signal”) could stimulate phagocytosis, and potentially synergize with the anti-CD20 antibody, Rituximab. FIG. 10A is a cartoon illustrating steps used in this assay.
Co-cultures of tagged Raji cells and macrophages were treated with a variety of chimeric protein and antibody combinations, including control IgGs with an anti-CD20 antibody (Rituximab), an anti-CD47 antibody (CC9, Celgene), the SIRPα(CD172a)-Fc-CD40L chimeric protein, and/or pembrolizumab (an anti-PD-1 antibody; […]/MK 3475, Merck). […] Such synergistic effect was unexpected.

Data set [3] concerns HCC1954 (high Her2-expressing breast cancer cell line). Nature of the data set: Macrophage engulfment of HCC1954 cells. It is filed as cell-based, human. As to conditions: combination with anti-Her2 antibody (trastuzumab); vs low Her2-expressing tumor cells.
The test system of data set [4] is CT26 tumor. Put plainly: CT26 tumor model, order of administration with anti-CTLA-4 or anti-PD-1 (Example 10). It is filed as in vivo, mice.
Data set [5] relates to cynomolgus macaque erythrocytes. Put plainly: In vitro hemolysis, cynomolgus macaque erythrocytes. It is filed as cell-based. From the text: However, the in vitro systems used to test this question have significant limitations, including a complete lack of macrophages in the test system.
A short description of data set [6]: Repeat-dose safety and activity study in cynomolgus macaques. The format is in vivo. On the procedure:
FIG. 21 is a graph showing cynomolgus macaques that were treated with vehicle, or 0.1, 1, 10, and 40 mg/kg of SIRPα-Fc-CD40L. Blood chemistry analysis assessed peripheral erythrocyte counts, hemoglobin levels, and hematocrit. In addition, the fold-change in lymphocyte count from pre-dose to 24 hours post-dose is shown.
The experiments of this example tested the safety and activity of the human SIRPα-Fc-CD40L chimeric protein following repeat doses in cynomolgus macaques. Briefly, naïve cynomolgus macaques were administered the human SIRPα-Fc-CD40L chimeric protein by intravenous infusion every week, for five consecutive weeks, at doses of 0.1, 1, 10 and 40 mg/kg. Standard hematology and clinical chemistry parameters were collected before and after each dose.
Receptor occupancy was evaluated on circulating CD40+ lymphocytes.

In data set [7] the test system is tumors. Put plainly: In vivo tumor model, SIRPα-Fc-LIGHT with anti-PD-1 (Example 15). The arrangement: species or system mice. The note with it: combination with anti-PD-1 antibody. The procedure:
The in vivo ability of combinations of the SIRPα-Fc-LIGHT chimeric protein with anti-PD-1 antibodies to target and treat tumors was determined. (FIG. 26A and FIG. 26B) FIG. 26C and FIG. 26D include data relevant to the graphs of FIG. 26A and FIG. 26B.

“SIRPα-Fc-CD40L: generic name of the SIRPαECD-Fc-CD40LECD chimeric protein; human or murine version according to the experiment”: the binding entry in data set [1] was “not to parental CHOK1 cells”. Also, in data set [2] (Fc receptors on the macrophages pre-blocked), the “synergy in phagocytosis with anti-CD20 antibody” value is “synergy was lost”. The “phagocytosis activity by flow cytometry” value in data set [2] (combination with an anti-CD20 antibody, among treatment groups) is on record as “greatest phagocytosis activity”. In addition, in data set [2] (combination with anti-CD20 antibody (Rituximab), listed as SIRPα(CD172a)-Fc-CD40L), the “macrophage engulfment (phagocytosis) of tumor cells” value was “most effective; also recorded: effective”. Also, the “rate of tumor cells engulfed by macrophages (phagocytosis index)” value in data set [2] (combination with anti-CD20 antibody vs chimeric protein-alone and antibody-alone treatments) is “greater than the sum”. In data set [2] (combination with anti-CD20 antibody, CD40 pre-blocked), the stimulation of phagocytosis result was “remained the same”. For the same substance, the “macrophage engulfment of tumor cells” value in data set [3] was “more effective”. For the same substance, the “treatment outcome (tumor size, survival)” value in data set [4] (anti-CTLA-4 antibody administered before the chimeric protein) and in data set [4] (anti-PD-1 antibody administered with the chimeric protein) was “greatest treatment outcome” in each case. For the same substance, the “treatment outcome / tumor control” value in data set [4] (chimeric protein administered before or after the anti-PD-1 antibody) and in data set [4] (chimeric protein administered before the anti-CTLA-4 antibody) was “less great treatment outcome” throughout. In addition, the hemolysis entry in data set [5] is listed as “did not reveal evidence of hemolysis”. The “total number of lymphocytes (episodic fluctuation)” value in data set [6] (before and after each dose) is “did not depart from the upper and lower range of normal”. In addition, in data set [6] (cynomolgus monkey, in vivo), the “number of CD40+ cells in the peripheral blood” value was “dose-dependent decrease”. Also, the “serum cytokines/chemokines (CCL2, CXCL9, CXCL10, IL-6, IL-15, IL-17A, IL-23)” value in data set [6] (following each infusion) is reported as “dose-dependent increases”. In addition, the “rejection of primary tumor” value in data set [7] is recorded as “able to reject primary tumor”.
